Molecules are shown by their SMILES.

Here are results for four molecules from patent US20040018210A1, “Cholesterol-lowering agent” (priority 2001, published 2004).

This experiment relates to T9A4 human hepatic cells. The experiment can be described thus: In vitro analysis of the hypocholesterolaemic effect: de novo synthesis of cholesterol measured by incorporation of C14-acetate. The settings on record: main purified oxylanosterol molecules. The class given is cell-based. As for the experimental part:
In the present context, the hypocholesterolaemic effect of the present product is evaluated in a qualitative manner on the model of T9A4 human hepatic cells cultured in vitro. Although it is known that such results cannot be transferred directly to man in vivo, they nevertheless provide useful indications. The hypocholesterolaemic effect is evaluated by measurement of the de novo synthesis of cholesterol on human hepatic cells in culture by measuring the incorporation of C^14-acetate. A means of evaluation of this de novo synthesis is described in a method presented below.
T9A4 human hepatic cells are grown on LCM medium (Biofluids, Rockville, Md.) at 37° C. under 3.5% CO2. The cells are seeded in 24-well culture boxes and incubated to confluence with 1 mM C14-acetate (1 mCi/mol, Amersham) for 20 hours in the absence (control) or in the presence of the extract rich in oxygenated derivatives of lanosterol obtained from fungi and/or purified fractions, dissolved in methanol.
A lipid extraction is carried out by incubation in a hexane:isopropanol (3:2) mixtures for 30 minutes at ambient temperature. The extract is then dried under nitrogen and then redissolved in hexane and subjected to thin layer high performance chromatography (Merck, Darmstadt, Germany) with a hexane:diethyl ether:acetic acid (75:25:1) mixture as the solvent. The cholesterol neosynthesis is determined by measuring the incorporation of C^14-acetate within the cholesterol with the aid of an imager (Camberra Packard, Zurich, Switzerland) and is expressed in % of the control.
ID50 represents the dose which inhibits the cholesterol synthesis by 50%. It can be seen that the various extracts have a considerable hypocholesterolaemic activity.

The molecule `C/C(=C\CC[C@@H](C)[C@H]1CC[C@@]2(C)C3=CC[C@H]4C(C)(C)[C@@H](O)CC[C@]4(C)C3=CC[C@]12C)CO` [Ganoderol B] returned an ID50 of 10 μq/ml.

In turn, `C/C(C=O)=C\CC[C@@H](C)[C@H]1CC[C@@]2(C)C3=CC[C@H]4C(C)(C)C(=O)CC[C@]4(C)C3=CC[C@]12C` [Ganoderal A] showed an ID50 of 7 μq/ml.

`C/C(=C\CC[C@@H](C)[C@H]1CC[C@@]2(C)C3=CC[C@H]4C(C)(C)C(=O)CC[C@]4(C)C3=CC[C@]12C)CO` [Ganoderol A] registered an ID50 of 1 μq/ml.

In the case of `C/C(=C\CC[C@@H](C)[C@H]1CC[C@@]2(C)C3=CC[C@H]4C(C)(C)[C@@H](O)CC[C@]4(C)C3=CC[C@]12C)C(=O)O` [Ganoderic acid Y], the ID50 is recorded as 0.5 μq/ml.
